# Patent US20020111314A1, “Novel stimulation of gene expression and protein synthesis of heat shock protein 72/73 (Hsp 70)” (The Trustees of Columbia University, priority 1995, published 2002)
# Entries after “also recorded” stand apart in the source; their conditions may differ. Square brackets hold non-standard residues; d marks the D form. Peptide text beside a SMILES is read from it. Nle = CCCC[C@H](N)C(=O)O
# What was measured:
# Hsp70 = Hsp70 induction in Chinese hamster ovary (CHO) cells; type: cell-based; conditions: data not shown
# hsp70, i.e. hsp72, mRNA = experiment: Northern blot of hsp70 (hsp72) mRNA in HepG2 cells; type: cell-based, human; conditions: ALLN 40 μg/ml, 4 hours at 37° C.
# Experimental: After 4 hours treatment at 37° C., cells were harvested. (B). […] The total RNA was prepared, and equal amounts of the samples were loaded and run on a 1% formaldehyde-agarose gel, blotted onto a nylon membrane, and subsequently hybridized with specific synthetic oligonucleotide probes for hsp70 mRNA as described under Experimental Details. The position of 28S and 18S rRNA are shown for reference.
# Equal amounts of tRNA samples (10 μg) were size-fractionated on a 1% agarose-formaldehyde gel according to the methods described (Maniatis, et al., 1982) and transferred to a piece of QIAGEN plus nylon membrane. To determine loading and transfer efficiency, RNA was stained with ethidium bromide before and after transfer. The membrane was baked for 30 min. at 80° C. in vacuo (a vacuum) followed by UV cross-linking. It was then incubated for 4 hours at 65° C. in a prehybridization mixture containing 10% dextran sulfate, 1% SDS, 1M sodium chloride, 50 mM Tris-HCl (pH 7.5) and 100 μg/ml denatured salmon sperm DNA. […] The membrane was then washed four times with 2×SSC, 0.1% SDS at room temperature, one time at 65° C. for 30 min., and one time at room temperature again for 5 min., and finally rinsed with 2×SSC at room temperature.
# [1] = test system: Hsp90, Hsp60, Hsp25, Hsp27, Hsp86, Hsp104, Bip and albumin; experiment: Biosynthesis of other Hsp family members and related proteins in HepG2 cells (SDS-PAGE, immunoprecipitation); type: cell-based, human
# Experimental: FIGS. 2A-2B: Effects of ALLN on Hsp25, Hsp60, Hsp90 and Bip biosynthesis. HepG2 cells were pre-treated and radiolabeled with/without ALLN for 4 hours as described in FIG. 1. Cell lysates were denatured and aliquoted for immunoprecipitation with anti-Hsp25, anti-Hsp60, anti-Hsp90, or anti-Bip antibodies respectively (1 μg/ml). Because the anti-Hsp90 antibody is of rat source, rabbit anti-rat IgG antibody was added after the first incubation and the incubation was extended for another 1 hour at 4° C. before collection with protein A-Sepharose. Immunoprecipitates were aliquoted for scintillation counting and plotted. Each value is presented as means±SD from three individual experiments.
# FIGS. 7A-7B: Effects of ALLN on the biosynthesis of other members of Hsp family and related proteins. HepG2cells were pre-treated and radiolabeled with or without ALLN for 4 hours as described in FIG. 1. […]
# HepG2 cells were preincubated for 4 hours in serum-free MEM and then radiolabeled with ^3H-Leucine (150 μCi/ml) in a serum-free, leucine-free medium. […] Cell lysates containing equal amounts of trichloroacetic acid (TCA)-insoluble radioactivity were used for immunoprecipitations by incubating with individual monoclonal antibody (1 μg/ml) for 2.5 hours at 4° C. […]
# [2] = test system: cysteine proteases, calpain and cathepsin B; conditions: Rock, et al., 1994; cited from earlier work
smiles,measurement,setting,value
"CCCC[C@@H](C=O)NC(=O)[C@H](CC(C)C)NC(=O)[C@H](CC(C)C)NC(C)=O [ALLN, N-acetyl-leucyl-leucyl-norleucinal] (Ac-Leu-Leu-[Nle]-aldehyde)",cellular Hsp70 levels,Hsp70,increasing cellular Hsp70 levels
same,"amount of hsp70, i.e. hsp72, mRNA","hsp70, i.e. hsp72, mRNA",increased dramatically
same,"effect on Hsp90, Hsp60, Hsp25, Hsp27, Hsp86, Hsp104, Bip or albumin levels",[1]; ALLN 4 hours,no effects; also recorded: only Hsp70 was induced
same,"level of a protein of about 80-90 kDa (whole-cell protein pattern, FIG. 2A)",[1]; ALLN-treated vs control,also increased but not as significantly as Hsp70
same,activities against calpain and cathepsin B,[2],significant activities
